Measurements published in patent US8946216B2, “Indazole derivatives useful as ERK inhibitors” (Merck Sharp & Dohme Corp., priority 2010, dated 2015).

What was measured:
ERK protein = ERK protein (Homo sapiens, UniProt P28482); experiment: TdF (Temperature Dependence Fluorescence, thermal shift) assay for ERK; type: binding; conditions: read-out: TdF Kd; 3 μM ERK protein, 15, 50 or 100 μM compound, Sypro Orange; Kd calculated from ΔTm; uncertainty estimated ±50%
Source text: Assays: TdF Assay for ERK
The SAR (Structure Activity Relationship) for ERK ligands covered by this invention was interrogated using the TdF (Temperature Dependence Fluorescence) assay or best known as thermal shift assay. The TdF assay was mainly conducted in the 96-well based CHROMO-4 real time fluorescence plate reader (BioRad). The Sypro Orange (Sigma-Aldrich), environmentally sensitive fluorescence dye, was used to monitor the protein folding-unfolding transition. Protein-ligand binding was gauged by the change (or shift) in the unfolding transition temperature (ΔTm) acquired at protein alone with respect to protein in the presence of ligand of interest.
Compound of interest was first prepared in DMSO stock (typical concentration: 10 mM). Sample of 20 μL was then added into the 96-well PCR plate, where it consisted of 3 μM. […] Final percentage of DMSO resided in the sample was 2%. The sample plate was heated from 30° C. to 90° C. with thermal ramping rate of 1 ° C./min. The fluorescence signals were acquired with excitation and emission wavelengths centered at 490 and 560 nm respectively. The instrument thermal stability was ±0.2° C. The melting temperatures (Tm) for ERK protein under aforementioned conditions occurred at 61.0±0.2° C. and 64.8±0.2° C. respectively.
Theoretical Basis for TdF-based Ligand Binding Affinity Constant
The derivation of TdF-based ligand binding affinity constant (Kd) followed closely those previously formulated by Brandts and Lin [2]. In brief, the binding constant of the ligand at the Tm is expressed as below: […]
where T0 is the midpoint of unfolding for unliganded protein and Tm is the midpoint of unfolding in presence of ligand. [LTm] is free ligand at Tm. The ΔHu and ΔCpu are the enthalpy of unfolding and heat capacity change of unfolding for the protein respectively. Following algorithm derived by Winsor and coworker, the T0, ΔHu and ΔCpu can be determined separately from nonlinear regression fitting the protein alone melting curve:
Where F(T) is the observed fluorescence intensity at any temperature T, Yn and Yu are the predicted fluorescence intensities for fully folded and unfolded protein, respectively; mn and mu are slope correction for changes in Yn and Yu with respect to changes in temperature (analogously replace T0 with Tm in the above equation for liganded protein to yield Tm).
where ΔHL(T) is the van't Hoff enthalpy of ligand binding at temperature T and ΔCpL is the heat capacity upon ligand binding. For simplicity, the ΔCpL and ΔHL(T) were set to zero and −7 kcal/mol respectively. The uncertainty in the calculated ligand binding affinity constant was estimated to be ±50%.

[1] = target: unphosphorylated Mouse ERK2 protein (inactive ERK2) (Mus musculus, UniProt P63085); experiment: Coupled ERK2 (cERK) assay, coupled MEK1/ERK2 IMAP; type: biochemical; conditions: 30 min preincubation with inactive ERK2, then activation by human MEK1; 30 μM ATP; fluorescence polarization; read-out: cERK2 IC50
Chain of unphosphorylated Mouse ERK2 protein (inactive ERK2) (P63085 whole entry): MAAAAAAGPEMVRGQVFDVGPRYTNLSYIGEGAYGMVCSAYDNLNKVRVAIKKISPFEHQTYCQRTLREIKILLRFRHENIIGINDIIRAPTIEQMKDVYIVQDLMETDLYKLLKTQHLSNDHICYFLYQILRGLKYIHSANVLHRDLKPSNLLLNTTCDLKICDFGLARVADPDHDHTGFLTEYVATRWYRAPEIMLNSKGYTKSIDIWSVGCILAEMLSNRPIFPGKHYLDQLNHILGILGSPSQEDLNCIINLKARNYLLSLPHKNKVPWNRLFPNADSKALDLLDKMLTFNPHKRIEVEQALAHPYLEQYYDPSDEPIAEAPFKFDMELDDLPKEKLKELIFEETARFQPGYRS
Source text: • 1. M. W. Pantoliana, E. C. Petrella, J. D. Kwasnoski, V. S. Lobanov, J. Myslik, E. Graf, T. Carver, E. Asel, B. A. Springer, P. Lane, F. R. Salemme, High-density miniaturized thermal shift assays as a general strategy for drug discovery, J. Biomol. Screen 6 (2001) 429-440 • 2. J. F. Brandts, L.-N. Lin, Study of strong to ultratight protein interactions using differential scanning calorimetry, Biochemistry 29 (1990) 6927-6940 • 3. Mayhood, T. W., Windsor, W. T., Ligand binding affinity determined by temperature-dependent circular dichroism: Cyclin-dependent kinase 2 inhibitors, Analytical Biochemistry 345 (2005) 187-197 Coupled ERK2 (cERK) Assay:
14 μl of kinase buffer (10 mM Tris.HCl pH 7.2, 10 mM MgCl2, 0.01% Tween-20, 1 mM DTT) containing 0.4 ng unphosphorylated Mouse ERK2 protein was added to each well of a black 384-well assay plate. […] DMSO concentration during initial incubation is 6.7%. ERK2 activity was determined to be insensitive to DMSO concentrations up to 20%. ERK2 was then activated and it's kinase activity measured by the addition of 10 μl kinase buffer with the following components (final concentration per reaction): 2 ng active (phosphorylated) human MEK1 protein and 4 μM (total) ERK2 IMAP substrate peptides (3.9 μM unlabeled IPTTPITTTYFFFK-CONH2 and 100 nM IPTTPITTTYFFFK(5-carboxyfluorescein)-CONH2) and 30 μM ATP. DMSO concentration during ERK activation was 4%. After one hour, reactions were terminated by addition of 60 μl IMAP detections beads in binding buffer (Molecular Devices). Binding was allowed to equilibrate for 30 minutes before reading the plate on an LJL Analyst Fluorescence Polarization plate reader. […] Active compounds were reconfirmed in an independent assay.

[2] = target: fully phosphorylated, active Mouse ERK2 protein (Mus musculus, UniProt P63085); experiment: Active ERK2 (aERK) assay, IMAP format; type: biochemical; conditions: 30 min preincubation; 1 μM substrate peptide, 30 μM ATP; fluorescence polarization; read-out: aERK2 IC50
Chain of fully phosphorylated, active Mouse ERK2 protein (P63085 whole entry): as above
Protocol: Active ERK2 (aERK) Assay:
Activated ERK2 activity was also determined in the IMAP assay format using the procedure outlined above. 1 μl of 25× compound was added to 14 μl of kinase buffer containing 0.25 ng fully phosphorylated, active Mouse ERK2 protein. Following a 30 minute incubation, the reactions were initiated by addition of 10 μl of kinase buffer containing 1 μM ERK2 IMAP substrate peptide (0.9 μM unlabeled IPTTPITTTYFFFK--CONH2 and 100 nM IPTTPITTTYFFFK(5-carboxyfluorescein)-CONH2) and 30 μM ATP. Reactions proceeded for 30 minutes before termination by addition of 60 μl IMAP detection beads in binding buffer. Plates were read as above after 30 minute binding equilibration. Active compounds were reconfirmed in an independent assay.

Chain of ERK protein (P28482 2-360): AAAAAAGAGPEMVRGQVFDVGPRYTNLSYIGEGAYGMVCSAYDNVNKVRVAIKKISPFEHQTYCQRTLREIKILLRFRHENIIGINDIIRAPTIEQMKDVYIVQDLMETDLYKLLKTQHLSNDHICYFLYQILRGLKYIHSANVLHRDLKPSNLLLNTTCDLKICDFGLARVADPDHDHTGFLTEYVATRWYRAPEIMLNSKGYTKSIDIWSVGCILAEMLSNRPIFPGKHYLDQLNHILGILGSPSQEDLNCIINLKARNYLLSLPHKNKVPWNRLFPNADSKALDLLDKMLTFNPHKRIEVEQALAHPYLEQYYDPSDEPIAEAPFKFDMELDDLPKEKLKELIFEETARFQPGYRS

O=C(Nc1ccc2[nH]nc(-c3ccncc3)c2c1)C1CNCCO1 (stereo not drawn) [Compound 16, N-[3-(4-PYRIDINYL)-1H-INDAZOL-5-YL]-2-MORPHOLINECARBOXAMIDE]
Kd (ERK protein): 13500 nM | IC50 [1]: 2140 nM | IC50 [2]: 852 nM

O=C(Nc1ccc2[nH]nc(-c3ccncc3)c2c1)C1CNCCS1 (stereo not drawn) [Compound 17, N-[3-(4-PYRIDINYL)-1H-INDAZOL-5-YL]-2-THIOMORPHOLINECARBOXAMIDE]
Kd (ERK protein): 5630 nM | IC50 [1]: 109 nM | IC50 [2]: 124 nM

Cc1nc(CN2CCOC(C(=O)Nc3ccc4[nH]nc(-c5ccncc5)c4c3)C2)cs1 (stereo not drawn) [Compound 18, 4-[(2-METHYL-4-THIAZOLYL)METHYL]-N-[3-(4-PYRIDINYL)-1H-INDAZOL-5-YL]-2-MORPHOLINECARBOXAMIDE]
Kd (ERK protein): 571 nM | IC50 [1]: 1170 nM | IC50 [2]: 18100 nM

O=C(Nc1ccc2[nH]nc(-c3ccncc3)c2c1)C1CN(Cc2cccnc2)CCO1 (stereo not drawn) [Compound 19, N-[3-(4-PYRIDINYL)-1H-INDAZOL-5-YL]-4-(3-PYRIDINYLMETHYL)-2-MORPHOLINECARBOXAMIDE]
Kd (ERK protein): 517 nM | IC50 [1]: 2200 nM | IC50 [2]: 17000 nM

O=C(Nc1ccc2[nH]nc(-c3ccncc3)c2c1)C1CN(Cc2cccc(Cl)c2)CCO1 (stereo not drawn) [Compound 29, 4-[(3-CHLOROPHENYL)METHYL]-N-[3-(4-PYRIDINYL)-1H-INDAZOL-5-YL]-2-MORPHOLINECARBOXAMIDE]
Kd (ERK protein): 141 nM | IC50 [1]: 151 nM | IC50 [2]: 123 nM

CSc1ccc(CN2CCOC(C(=O)Nc3ccc4[nH]nc(-c5ccncc5)c4c3)C2)cc1 (stereo not drawn) [Compound 34, 4-[[4-(METHYLTHIO)PHENYL]METHYL]-N-[3-(4-PYRIDINYL)-1H-INDAZOL-5-YL]-2-MORPHOLINECARBOXAMIDE]
Kd (ERK protein): 423 nM | IC50 [1]: 508 nM | IC50 [2]: 957 nM

COc1ccccc1CN1CCOC(C(=O)Nc2ccc3[nH]nc(-c4ccncc4)c3c2)C1 (stereo not drawn) [Compound 35, 4-[(2-METHOXYPHENYL)METHYL]-N-[3-(4-PYRIDINYL)-1H-INDAZOL-5-YL]-2-MORPHOLINECARBOXAMIDE]
Kd (ERK protein): 79 nM | IC50 [1]: 80.9 nM | IC50 [2]: 37.9 nM

O=C(Nc1ccc2[nH]nc(-c3ccncc3)c2c1)C1CN(Cc2ccccc2)CCS1 (stereo not drawn) [Compound 36, 4-(PHENYLMETHYL)-N-[3-(4-PYRIDINYL)-1H-INDAZOL-5-YL]-2-THIOMORPHOLINECARBOXAMIDE]
Kd (ERK protein): 62 nM | IC50 [1]: 166 nM | IC50 [2]: 1840 nM

O=C(Nc1ccc2[nH]nc(-c3ccncc3)c2c1)C1CN(Cc2c(F)cccc2Cl)CCO1 (stereo not drawn) [Compound 37, 4-[(2-CHLORO-6-FLUOROPHENYL)METHYL]-N-[3-(4-PYRIDINYL)-1H-INDAZOL-5-YL]-2-MORPHOLINECARBOXAMIDE]
Kd (ERK protein): 27 nM | IC50 [1]: 173 nM | IC50 [2]: 111 nM

O=C(Nc1ccc2[nH]nc(-c3ccncc3)c2c1)C1CN(Cc2cccc(F)c2F)CCO1 (stereo not drawn) [Compound 43, 4-[(2,3-DIFLUOROPHENYL)METHYL]-N-[3-(4-PYRIDINYL)-1H-INDAZOL-5-YL]-2-MORPHOLINECARBOXAMIDE]
Kd (ERK protein): 214 nM | IC50 [1]: 218 nM | IC50 [2]: 139 nM

O=C(Nc1ccc2[nH]nc(-c3ccncc3)c2c1)C1CN(Cc2c(F)cccc2F)CCO1 (stereo not drawn) [Compound 44, 4-[(2,6-DIFLUOROPHENYL)METHYL]-N-[3-(4-PYRIDINYL)-1H-INDAZOL-5-YL]-2-MORPHOLINECARBOXAMIDE]
Kd (ERK protein): 165 nM | IC50 [1]: 109 nM | IC50 [2]: 69.2 nM

O=C(Nc1ccc2[nH]nc(-c3ccncc3)c2c1)C1CN(Cc2ccc(F)cc2F)CCO1 (stereo not drawn) [Compound 45, 4-[(2,4-DIFLUOROPHENYL)METHYL]-N-[3-(4-PYRIDINYL)-1H-INDAZOL-5-YL]-2-MORPHOLINECARBOXAMIDE]
Kd (ERK protein): 80 nM | IC50 [1]: 275 nM | IC50 [2]: 138 nM

COc1ccc(F)c(CN2CCOC(C(=O)Nc3ccc4[nH]nc(-c5ccncc5)c4c3)C2)c1 (stereo not drawn) [Compound 46, 4-[(2-FLUORO-5-METHOXYPHENYL)METHYL]-N-[3-(4-PYRIDINYL)-1H-INDAZOL-5-YL]-2-MORPHOLINECARBOXAMIDE]
Kd (ERK protein): 167 nM | IC50 [1]: 148 nM | IC50 [2]: 148 nM

O=C(Nc1ccc2[nH]nc(-c3ccncc3)c2c1)C1CN(Cc2c(F)ccc(Cl)c2F)CCO1 (stereo not drawn) [Compound 47, 4-[(3-CHLORO-2,6-DIFLUOROPHENYL)METHYL]-N-[3-(4-PYRIDINYL)-1H-INDAZOL-5-YL]-2-MORPHOLINECARBOXAMIDE]
Kd (ERK protein): 223 nM | IC50 [1]: 452 nM | IC50 [2]: 581 nM

O=C(Nc1ccc2[nH]nc(-c3ccncc3)c2c1)C1CN(Cc2c(F)ccc(F)c2Cl)CCO1 (stereo not drawn) [Compound 48, 4-[(2-CHLORO-3,6-DIFLUOROPHENYL)METHYL]-N-[3-(4-PYRIDINYL)-1H-INDAZOL-5-YL]-2-MORPHOLINECARBOXAMIDE]
Kd (ERK protein): 202 nM | IC50 [1]: 909 nM | IC50 [2]: 371 nM

O=C(Nc1ccc2[nH]nc(-c3ccncc3)c2c1)C1CN(Cc2cc(Cl)cc(Cl)c2)CCO1 (stereo not drawn) [Compound 50, 4-[(3,5-DICHLOROPHENYL)METHYL]-N-[3-(4-PYRIDINYL)-1H-INDAZOL-5-YL]-2-MORPHOLINECARBOXAMIDE]
Kd (ERK protein): 500 nM | IC50 [1]: 8840 nM | IC50 [2]: 8680 nM

O=C(Nc1ccc2[nH]nc(-c3ccncc3)c2c1)C1CNCCC1c1ccc(F)cc1 (stereo not drawn) [Compound 52, 4-(4-FLUOROPHENYL)-N-(3-(PYRIDIN-4-YL)-1H-INDAZOL-5-YL)PIPERIDINE-3-CARBOXAMIDE]
Kd (ERK protein): 18 nM | IC50 [1]: 60.8 nM | IC50 [2]: 56.5 nM

O=C(Nc1ccc2[nH]nc(-c3ccncc3)c2c1)C1CNCCC1c1ccccc1 (stereo not drawn) [Compound 53, 4-PHENYL-N-[3-(4-PYRIDINYL)-1H-INDAZOL-5-YL]-3-PIPERIDINECARBOXAMIDE]
Kd (ERK protein): 70 nM | IC50 [1]: 69.5 nM | IC50 [2]: 102 nM

N#Cc1ccccc1N1CCCC(C(=O)Nc2ccc3[nH]nc(-c4ccncc4)c3c2)C1 (stereo not drawn) [Compound 55, 1-(2-CYANOPHENYL)-N-[3-(4-PYRIDINYL)-1H-INDAZOL-5-YL]-3-PIPERIDINECARBOXAMIDE]
Kd (ERK protein): 23 nM | IC50 [1]: 91.5 nM | IC50 [2]: 82.3 nM

O=C(Nc1ccc2[nH]nc(-c3ccncc3)c2c1)C1CCCN(C(=O)c2ccccc2)C1 (stereo not drawn) [Compound 56, 1-BENZOYL-N-[3-(4-PYRIDINYL)-1H-INDAZOL-5-YL]-3-PIPERIDINECARBOXAMIDE]
Kd (ERK protein): 420 nM | IC50 [1]: 150 nM | IC50 [2]: 553 nM
